From patent publication US20260078122A1, “INDAZOLE COMPOUNDS AS PKMYT1 KINASE INHIBITORS” (Hoffmann-La Roche Inc., priority 2023, published 2026) come the findings set out here.

Each structure is given as a SMILES string. Some results are limits rather than exact numbers.

The nature of data set [1]: Human microsome stability assay. As to conditions: 1 μM compound, 0.5 mg/mL liver microsomal protein, 1 mM NADPH, 37° C., 0-30 minutes. In general terms: Liver microsomes are vesicles of endoplasmic reticulum, rich in cytochrome P450 enzymes.
For data set [2], the target named is T1, recombinant human Myt1 (full length PKMYT1) (Homo sapiens, UniProt Q99640).
T1 sequence (Q99640 1-499): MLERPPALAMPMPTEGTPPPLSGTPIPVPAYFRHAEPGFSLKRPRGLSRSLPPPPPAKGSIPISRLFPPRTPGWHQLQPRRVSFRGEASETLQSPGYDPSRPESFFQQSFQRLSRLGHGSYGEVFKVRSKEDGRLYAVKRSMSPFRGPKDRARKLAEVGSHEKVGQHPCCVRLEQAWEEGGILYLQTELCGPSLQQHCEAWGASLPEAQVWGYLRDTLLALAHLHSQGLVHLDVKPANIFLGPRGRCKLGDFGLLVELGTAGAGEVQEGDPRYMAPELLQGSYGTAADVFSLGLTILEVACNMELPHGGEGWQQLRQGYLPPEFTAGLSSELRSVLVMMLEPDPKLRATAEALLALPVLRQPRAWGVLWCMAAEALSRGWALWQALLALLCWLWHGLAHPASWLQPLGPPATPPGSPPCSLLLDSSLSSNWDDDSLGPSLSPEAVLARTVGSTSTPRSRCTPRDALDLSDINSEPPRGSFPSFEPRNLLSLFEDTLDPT
Kind of data set: ADP-Glo assay (Myt1 kinase activity).

For the molecule `COc1c(C)cnc2c(-c3ccc(F)c4[nH]ncc34)c(N)c(=O)[nH]c12` [Example 051, 3-Amino-4-(7-fluoro-1H-indazol-4-yl)-8-methoxy-7-methyl-1H-1,5-naphthyridin-2-one], the “Clearance of Human microsome” value in data set [1] was 6.15 mL/min/kg.

`Cc1cnc2c(-c3ccc(F)c4[nH]ncc34)c(N)c(=O)[nH]c2c1Cl` [Example 053, 3-Amino-8-chloro-4-(7-fluoro-1H-indazol-4-yl)-7-methyl-1H-1,5-naphthyridin-2-one]: the “Clearance of Human microsome” value in data set [1] is 8.09 mL/min/kg.

For the molecule `Cc1nc2c(-c3ccc(F)c4[nH]ncc34)c(N)c(=O)[nH]c2c(C)c1Cl` [Example 056, 3-Amino-7-chloro-4-(7-fluoro-1H-indazol-4-yl)-6,8-dimethyl-1H-1,5-naphthyridin-2-one], the “Clearance of Human microsome” value in data set [1] was 7.47 mL/min/kg.

As a reminder, the IC50 is the concentration that gives 50% inhibition. Take `CCOC(=O)COc1nc2c(-c3ccc(F)c4[nH]ncc34)c(N)c(=O)[nH]c2cc1C` [Example 061, Ethyl 2-[[7-amino-8-(7-fluoro-1H-indazol-4-yl)-3-methyl-6-oxo-5H-1,5-naphthyridin-2-yl]oxy]acetate]: the IC50 in data set [2] turned out to be 17.7 nM. Moreover, the “Clearance of Human microsome” value in data set [1] came out at 6.15 mL/min/kg.

With `Cc1cc2[nH]c(=O)c(N)c(-c3ccc(F)c4[nH]ncc34)c2nc1C1CCNCC1` [Example 069, 3-Amino-4-(7-fluoro-1H-indazol-4-yl)-7-methyl-6-(4-piperidyl)-1H-1,5-naphthyridin-2-one], the IC50 in data set [2] was found to be 10.9 nM. Also, the “Clearance of Human microsome” value in data set [1] is recorded as 7.78 mL/min/kg.

As to `Cc1cc2[nH]c(=O)c(N)c(-c3ccc(F)c4[nH]ncc34)c2nc1C#CC1COCC1O` (stereo not shown) [Example 073, 3-Amino-4-(7-fluoro-1H-indazol-4-yl)-6-[2-(4-hydroxytetrahydrofuran-3-yl)ethynyl]-7-methyl-1H-1,5-naphthyridin-2-one], the IC50 in data set [2] came to 14 nM. The “Clearance of Human microsome” value in data set [1] is 6.15 mL/min/kg.

Regarding `Cc1cc2[nH]c(=O)c(N)c(-c3ccc(F)c4[nH]ncc34)c2nc1C#CC(C)O` (stereo not shown) [Example 074, 3-Amino-4-(7-fluoro-1H-indazol-4-yl)-6-(3-hydroxybut-1-ynyl)-7-methyl-1H-1,5-naphthyridin-2-one], the IC50 in data set [2] came out at 11 nM. The “Clearance of Human microsome” value in data set [1] is 6.15 mL/min/kg.

For `Cc1cc2[nH]c(=O)c(N)c(-c3ccc(F)c4[nH]ncc34)c2nc1C#CCN1CCOCC1` [Example 076, 3-Amino-4-(7-fluoro-1H-indazol-4-yl)-7-methyl-6-(3-morpholinoprop-1-ynyl)-1H-1,5-naphthyridin-2-one], in data set [2], the IC50 amounted to 14.8 nM. In addition, the “Clearance of Human microsome” value in data set [1] is on record as 8.12 mL/min/kg.

On to `Cc1cc2[nH]c(=O)c(N)c(-c3ccc(F)c4[nH]ncc34)c2nc1C1CCN(C)CC1` [Example 082, 3-Amino-4-(7-fluoro-1H-indazol-4-yl)-7-methyl-6-(1-methyl-4-piperidyl)-1H-1,5-naphthyridin-2-one], for which the IC50 in data set [2] is 16.4 nM. In data set [1], the “Clearance of Human microsome” value amounted to 6.15 mL/min/kg.

`Cc1nc(C)c2[nH]c(=O)c(N)c(-c3ccc(F)c4[nH]ncc34)c2n1` [Example 084, 7-Amino-8-(7-fluoro-1H-indazol-4-yl)-2,4-dimethyl-5H-pyrido[3,2-d]pyrimidin-6-one]: in data set [2], the IC50 was below 10 nM. Besides, in data set [1], the “Clearance of Human microsome” value is recorded as 6.15 mL/min/kg.

For the molecule `Cc1cc2[nH]c(=O)c(N)c(-c3ccc(F)c4[nH]ncc34)c2nc1C(=O)O` [Example 089, 7-Amino-8-(7-fluoro-1H-indazol-4-yl)-3-methyl-6-oxo-5H-1,5-naphthyridine-2-carboxylic acid], the “Clearance of Human microsome” value in data set [1] came to 6.15 mL/min/kg.

Take `Cc1cc(Cl)c2[nH]c(=O)c(N)c(-c3ccc(F)c4[nH]ncc34)c2n1` [Example 090, 3-Amino-8-chloro-4-(7-fluoro-1H-indazol-4-yl)-6-methyl-1H-1,5-naphthyridin-2-one]: the IC50 in data set [2] was 13 nM. Also, the “Clearance of Human microsome” value in data set [1] was 6.15 mL/min/kg.

Regarding `Cc1cc(Cl)nc2c(-c3ccc(F)c4[nH]ncc34)c(N)c(=O)[nH]c12` [Example 091, 3-Amino-6-chloro-4-(7-fluoro-1H-indazol-4-yl)-8-methyl-1H-1,5-naphthyridin-2-one], the IC50 in data set [2] worked out at 14 nM. Also, the “Clearance of Human microsome” value in data set [1] was found to be 6.15 mL/min/kg.

Turning to `Cc1cc2[nH]c(=O)c(N)c(-c3ccc(F)c4[nH]ncc34)c2nc1C#N` [Example 092, 7-Amino-8-(7-fluoro-1H-indazol-4-yl)-3-methyl-6-oxo-5H-1,5-naphthyridine-2-carbonitrile], in data set [2], the IC50 stood at 14.4 nM. Moreover, the “Clearance of Human microsome” value in data set [1] turned out to be 6.15 mL/min/kg.

Turning to `Cc1cc2[nH]c(=O)c(N)c(-c3ccc(F)c4[nH]ncc34)c2nc1C1CN(C)C1` [Example 098, 3-Amino-4-(7-fluoro-1H-indazol-4-yl)-7-methyl-6-(1-methylazetidin-3-yl)-1H-1,5-naphthyridin-2-one], in data set [2], the IC50 is 18.7 nM. Besides, the “Clearance of Human microsome” value in data set [1] came out at 7.72 mL/min/kg.

Regarding `Cc1cc2c(-c3ccc(F)c4[nH]ncc34)c(N)c(=O)[nH]c2nc1C` [Example 107, 3-Amino-4-(7-fluoro-1H-indazol-4-yl)-6,7-dimethyl-1H-1,8-naphthyridin-2-one], in data set [2], the IC50 amounted to 22.3 nM. Besides, the “Clearance of Human microsome” value in data set [1] is recorded as 7.13 mL/min/kg.

For the molecule `Cc1nc2c(-c3ccc(F)c4[nH]ncc34)c(N)c(=O)[nH]c2c(C)c1C` [Example 110, 3-Amino-4-(7-fluoro-1H-indazol-4-yl)-6,7,8-trimethyl-1H-1,5-naphthyridin-2-one], the IC50 in data set [2] was found to be 16.7 nM. Also, the “Clearance of Human microsome” value in data set [1] worked out at 6.15 mL/min/kg.

Consider `Cc1c(N2CCC2)cnc2c(-c3ccc(F)c4[nH]ncc34)c(N)c(=O)[nH]c12` [Example 117, 3-Amino-7-(azetidin-1-yl)-4-(7-fluoro-1H-indazol-4-yl)-8-methyl-1H-1,5-naphthyridin-2-one], for which the IC50 in data set [2] is 14.9 nM. Further, in data set [1], the “Clearance of Human microsome” value is 7.72 mL/min/kg.

`Cc1c(C#N)cnc2c(-c3ccc(F)c4[nH]ncc34)c(N)c(=O)[nH]c12` [Example 118, 7-Amino-8-(7-fluoro-1H-indazol-4-yl)-4-methyl-6-oxo-5H-1,5-naphthyridine-3-carbonitrile]: the concentration for half-maximal inhibition (IC50) in data set [2] worked out at 17.8 nM. For the same molecule, the “Clearance of Human microsome” value in data set [1] came out at 6.15 mL/min/kg.

For the molecule `Cc1c(-c2ccnnc2)cnc2c(-c3ccc(F)c4[nH]ncc34)c(N)c(=O)[nH]c12` [Example 120, 3-Amino-4-(7-fluoro-1H-indazol-4-yl)-8-methyl-7-pyridazin-4-yl-1H-1,5-naphthyridin-2-one], the IC50 in data set [2] stood at 17.2 nM. Moreover, the “Clearance of Human microsome” value in data set [1] came to 6.15 mL/min/kg.

Consider `Cc1c(C2COC2)cnc2c(-c3ccc(F)c4[nH]ncc34)c(N)c(=O)[nH]c12` [Example 122, 3-Amino-4-(7-fluoro-1H-indazol-4-yl)-8-methyl-7-(oxetan-3-yl)-1H-1,5-naphthyridin-2-one], for which the IC50 in data set [2] is below 10 nM. In addition, the “Clearance of Human microsome” value in data set [1] was determined as 6.15 mL/min/kg.

As to `Cc1c(C(C)(F)F)cnc2c(-c3ccc(F)c4[nH]ncc34)c(N)c(=O)[nH]c12` [Example 134, 3-Amino-7-(1,1-difluoroethyl)-4-(7-fluoro-1H-indazol-4-yl)-8-methyl-1H-1,5-naphthyridin-2-one], the IC50 in data set [2] was below 10 nM. Besides, the “Clearance of Human microsome” value in data set [1] is recorded as 6.15 mL/min/kg.

In the case of `Cc1c([S+](C)[O-])cnc2c(-c3ccc(F)c4[nH]ncc34)c(N)c(=O)[nH]c12` (stereo not shown) [Example 142, 3-Amino-4-(7-fluoro-1H-indazol-4-yl)-8-methyl-7-methylsulfinyl-1H-1,5-naphthyridin-2-one], the IC50 in data set [2] amounted to 18.4 nM. Further, the “Clearance of Human microsome” value in data set [1] was 6.15 mL/min/kg.

In the case of `Cc1c(S(C)(=O)=O)cnc2c(-c3ccc(F)c4[nH]ncc34)c(N)c(=O)[nH]c12` [Example 143, 3-Amino-4-(7-fluoro-1H-indazol-4-yl)-8-methyl-7-methylsulfonyl-1H-1,5-naphthyridin-2-one], the IC50 in data set [2] came to 11 nM. Moreover, in data set [1], the “Clearance of Human microsome” value is 6.15 mL/min/kg.

In the case of `Cc1nc(C#N)c2c(-c3ccc(F)c4[nH]ncc34)c(N)c(=O)[nH]c2c1C` [Example 161, 3-Amino-4-(7-fluoro-1H-indazol-4-yl)-7,8-dimethyl-2-oxo-1H-1,6-naphthyridine-5-carbonitrile], the IC50 in data set [2] worked out at 15.5 nM. Further, in data set [1], the “Clearance of Human microsome” value was found to be 6.15 mL/min/kg.

As for `Cc1cnc(Cl)c2c(-c3ccc(F)c4[nH]ncc34)c(N)c(=O)[nH]c12` [Example 164, 3-Amino-5-chloro-4-(7-fluoro-1H-indazol-4-yl)-8-methyl-1H-1,6-naphthyridin-2-one], in data set [2], the IC50 is below 10 nM. In addition, the “Clearance of Human microsome” value in data set [1] is given as 6.15 mL/min/kg.

For the molecule `Cc1nc(C2CC2)cc2[nH]c(=O)c(N)c(-c3ccc(F)c4[nH]ncc34)c12` [Example 166, 3-Amino-7-cyclopropyl-4-(7-fluoro-1H-indazol-4-yl)-5-methyl-1H-1,6-naphthyridin-2-one], the IC50 in data set [2] is 14.7 nM. In data set [1], the “Clearance of Human microsome” value amounted to 6.15 mL/min/kg.

As to `COc1ncc(C)c2[nH]c(=O)c(N)c(-c3ccc(F)c4[nH]ncc34)c12` [Example 172, 3-Amino-4-(7-fluoro-1H-indazol-4-yl)-5-methoxy-8-methyl-1H-1,6-naphthyridin-2-one], the IC50 in data set [2] was 10.9 nM. Further, the “Clearance of Human microsome” value in data set [1] was 6.20 mL/min/kg.
